Source: EPA's ToxValDB 9.5

System: Rattus norvegicus
Settings: short-term, duration: 28 days, oral, gavage, M, Sprague-Dawley

Work on `O=C(O)C(F)(F)C(F)(F)C(F)(F)C(F)(F)C(F)(F)C(F)(F)C(F)(F)C(F)(F)C(F)(F)F` [Perfluorodecanoic acid] yielded an LOEL (Clinical chemistry_Aspartate aminotransferase) of 0.156 mg/kg-day, an LOEL (Clinical chemistry_Cholesterol) of 0.156 mg/kg-day and an NOEL (Clinical chemistry_Creatinine kinase) of 2.5 mg/kg-day. The LOEL (Clinical chemistry_Direct bilirubin) was 1.25 mg/kg-day, the LOEL (Clinical chemistry_Free thyroxine) was 0.312 mg/kg-day and the LOEL (Clinical chemistry_Globulin) was 0.156 mg/kg-day. It also gave an LOEL (Clinical chemistry_Indirect bilirubin) of 1.25 mg/kg-day, an NOEL (Clinical chemistry_Sorbitol dehydrogenase) of 2.5 mg/kg-day and an LOEL (Clinical chemistry_Testosterone) of 1.25 mg/kg-day. It also gave an NOEL (Clinical chemistry_Thyroid stimulating hormone) of 2.5 mg/kg-day, an LOEL (Clinical chemistry_Total bile acids) of 1.25 mg/kg-day and an LOEL (Clinical chemistry_Total bilirubin) of 1.25 mg/kg-day. It also gave an LOEL (Clinical chemistry_Total protein) of 0.156 mg/kg-day, an NOEL (Clinical chemistry_Total thyroxine) of 2.5 mg/kg-day and an NOEL (Clinical chemistry_Total triiodothyronine) of 2.5 mg/kg-day. The LOEL (Clinical chemistry_Triglycerides) was 1.25 mg/kg-day, the LOEL (Gene expression_Acox1) was 0.156 mg/kg-day and the LOEL (Gene expression_Acyl-CoA oxidase) was 0.156 mg/kg-day. The LOEL (Gene expression_Cyp2b1) was 0.156 mg/kg-day, the LOEL (Gene expression_Cyp2b2) was 0.156 mg/kg-day and the LOEL (Gene expression_Cyp4a1) was 0.156 mg/kg-day. It also gave an LOEL (Hematology_Erythrocytes) of 2.5 mg/kg-day, an NOEL (Hematology_Hematocrit) of 2.5 mg/kg-day and an NOEL (Hematology_Hemoglobin) of 2.5 mg/kg-day. For the same compound, the LOEL (Hematology_Mean corpuscular hemoglobin concentration) was 0.625 mg/kg-day, the LOEL (Hematology_Mean corpuscular volume) was 1.25 mg/kg-day and the NOEL (Hematology_Platelets) was 2.5 mg/kg-day. The LOEL (Hematology_Reticulocytes) was 1.25 mg/kg-day, the LOEL (Nonneoplastic effects_Bone marrow - Hypocellularity) was 2.5 mg/kg-day and the LOEL (Nonneoplastic effects_Epididymis - Duct, exfoliated germ cell) was 2.5 mg/kg-day. For the same compound, the NOEL (Nonneoplastic effects_Epididymis - Epithelium, apoptosis) was 2.5 mg/kg-day, the NOEL (Nonneoplastic effects_Epididymis - Hypospermia) was 2.5 mg/kg-day and the NOEL (Nonneoplastic effects_Forestomach - Epithelium, hyperplasia) was 2.5 mg/kg-day. The NOEL (Nonneoplastic effects_Forestomach - Inflammation, chronic active) was 2.5 mg/kg-day, the NOEL (Nonneoplastic effects_Kidney - Nephropathy, chronic progressive) was 2.5 mg/kg-day and the NOEL (Nonneoplastic effects_Liver - Hepatocyte, Necrosis) was 2.5 mg/kg-day. The LOEL (Nonneoplastic effects_Liver - Hepatocyte, cytoplasmic alteration) was 0.625 mg/kg-day, the LOEL (Nonneoplastic effects_Liver - Hepatocyte, hypertrophy) was 1.25 mg/kg-day and the LOEL (Nonneoplastic effects_Liver - Hepatocyte, vacuolization cytoplasmic) was 1.25 mg/kg-day. The NOEL (Nonneoplastic effects_Lymph nodes - Mandibular, atrophy) was 2.5 mg/kg-day, the NOEL (Nonneoplastic effects_Lymph nodes - Mesenteric, atrophy) was 2.5 mg/kg-day and the NOEL (Nonneoplastic effects_Nose - Olfactory epithelium, degeneration) was 2.5 mg/kg-day. It also gave an NOEL (Nonneoplastic effects_Nose - Olfactory epithelium, hyperplasia) of 2.5 mg/kg-day, an NOEL (Nonneoplastic effects_Nose - Olfactory epithelium, inflammation, suppurative) of 2.5 mg/kg-day and an NOEL (Nonneoplastic effects_Nose - Respiratory epithelium, hyperplasia) of 2.5 mg/kg-day. For the same compound, the NOEL (Nonneoplastic effects_Nose - Respiratory epithelium, inflammation, chronic active) was 2.5 mg/kg-day, the NOEL (Nonneoplastic effects_Spleen - Atrophy) was 2.5 mg/kg-day and the NOEL (Nonneoplastic effects_Spleen - Extramedullary hematopoiesis, increased) was 2.5 mg/kg-day. For the same compound, the LOEL (Nonneoplastic effects_Testes - Germinal epithelium, degeneration) was 2.5 mg/kg-day, the LOEL (Nonneoplastic effects_Testes - Interstitial cell, atrophy) was 1.25 mg/kg-day and the LOEL (Nonneoplastic effects_Testes - Seminiferous tubule, spermatid retention) was 2.5 mg/kg-day. It also gave an LOEL (Nonneoplastic effects_Thymus - Atrophy) of 2.5 mg/kg-day, an LOEL (Nonneoplastic effects_Thymus - Lymphocyte, apoptosis) of 1.25 mg/kg-day and an NOEL (Nonneoplastic effects_Thyroid gland - Follicular cell hypertrophy) of 2.5 mg/kg-day. For the same compound, the LOEL (Organ weights_Liver - Absolute) was 0.156 mg/kg-day, the LOEL (Organ weights_Liver - Relative) was 0.156 mg/kg-day and the LOEL (Organ weights_R. adrenal gland - Absolute) was 0.156 mg/kg-day. It also gave an LOEL (Organ weights_R. adrenal gland - Relative) of 2.5 mg/kg-day, an LOEL (Organ weights_R. kidney - Absolute) of 2.5 mg/kg-day and an LOEL (Organ weights_R. kidney - Relative) of 0.625 mg/kg-day. For the same compound, the LOEL (Organ weights_R. testis - Absolute) was 2.5 mg/kg-day, the LOEL (Organ weights_Spleen - Absolute) was 1.25 mg/kg-day and the LOEL (Organ weights_Spleen - Relative) was 2.5 mg/kg-day. It also gave an LOEL (Organ weights_Thymus - Absolute) of 1.25 mg/kg-day, an LOEL (Organ weights_Thymus - Relative) of 1.25 mg/kg-day and an NOEL (Organ weights_Thyroid gland - Absolute) of 2.5 mg/kg-day. For the same compound, the LOEL (Organ weights_Thyroid gland - Relative) was 1.25 mg/kg-day, the LOEL (Reproductive toxicity_Altered sperm parameters) was 2.5 mg/kg-day and the NOEL (Survival rates) was 2.5 mg/kg-day. For the same compound, the LOEL (body weight) was 1.25 mg/kg-day.
